The values that follow are results of earlier work, collected in patent US6967217B1, “Process and composition for enhancing the action of vitamin a on the cellular activity of an individual, and use of vitamin c” (Natura Cosmetico S.A., priority 1998, dated 2005).

For the series, the system named is wrinkles. The following applies: Retinol 0.034%; men and women with age between 22 and 34 years.

`CC1=C(/C=C/C(C)=C/C=C/C(C)=C/CO)C(C)(C)CCC1` [Retinol]: the effect on wrinkles result is “reduce the amount and the deepness of wrinkles”.
